Biological target: Carbonic anhydrase 9 (Homo sapiens, UniProt Q16790)
Experiment: Inhibition of human recombinant carbonic anhydrase 9 catalytic domain preincubated for 15 mins by CO2 hydration method

| Ki [nM] | Structure (SMILES) |
| --- | --- |
| 87 | COc1ccc2c(CC(=O)Nc3ccc(S(N)(=O)=O)cc3)cc(=O)oc2c1 |
| 14 | COc1ccc2c(CC(=O)Nc3cc(C(F)(F)F)c(S(N)(=O)=O)cc3S(N)(=O)=O)cc(=O)oc2c1 |
| 59 | COc1ccc2c(CC(=O)Nc3cccc(S(N)(=O)=O)c3)cc(=O)oc2c1 |

— ChEMBL document CHEMBL1177692 (Bioorg Med Chem, 2010)
